Patent US7250422B2 (priority 2002, dated 2007)

What was measured:
Male ICR mice [1] = assay: Spontaneous locomotor activity increased by morphine (Video-tracking system); assay type: in vivo; conditions: for locomotor activity (steps): six days; for suppression of locomotor activity increased by morphine vs morphine control group: p<0.001
Experimental: (§1) 10 to 15 mice per group were used.
Spontaneous locomotor activity was tested in a plastic chamber (26×30×30 cm) using a Video-tracking system. […] Immediately after the last administration, the mice were placed in the plastic chamber, and spontaneous locomotor activity was recorded for 30 min and analyzed using a computer program.

rats = conditions: intraperitoneal injection; cited from earlier work
Male ICR mice [2] = assay: Conditioned place preference test for psychological dependence on morphine; conditions: p<0.01, FIG. 1
From the text: as §1

Male ICR mice [3] = conditions: berberine 1, 3 and 10 mg/kg i.p. 30 min before morphine 5 mg/kg s.c.; FIG. 3
mice = assay: Hot-plate test, morphine tolerance caused by repeated administration; assay type: in vivo; conditions: berberine 10 mg/kg i.p. 30 min before morphine 10 mg/kg s.c., six days, tested day 7; P<0.01; FIG. 4

COc1ccc2cc3[n+](cc2c1OC)CCc1cc2c(cc1-3)OCO2 [berberine, 7,8,13,13a-tetradihydro-9,10-dimethoxy-2,3-(methyldioxy)berbinium]
locomotor activity (steps) (Male ICR mice [1]; berberine 1 mg/kg orally one hour before morphine 10 mg/kg, recorded 30 min): 19744 steps
suppression of locomotor activity increased by morphine vs morphine control group (Male ICR mice [1]; berberine 1 mg/kg orally): 61%
locomotor activity (steps) (Male ICR mice [1]; berberine 2 mg/kg orally one hour before morphine 10 mg/kg, recorded 30 min): 20027 steps
suppression of locomotor activity increased by morphine vs morphine control group (Male ICR mice [1]; berberine 2 mg/kg orally): 60%
LD50 (rats): 90 mg/kg
inhibition of psychological dependence on morphine (Male ICR mice [2]; berberine 1 or 2 mg/kg orally one hour before morphine 5 mg/kg i.p., equal to saline control): completely inhibited
effect on the analgesic effect of morphine (AUC of % MPE) (Male ICR mice [3]): rarely affect the analgesic effect of morphine
inhibition of the development of morphine tolerance (AUC) (mice): significantly inhibited

CN1CC[C@]23c4c5ccc(O)c4O[C@H]2[C@@H](O)C=C[C@H]3[C@H]1C5 [morphine]
locomotor activity (steps by a forefoot) (Male ICR mice [1]; only morphine 10 mg/kg once per day for six days, recorded 30 min): 50242 steps
development of psychological dependence (testing time minus preconditioning time) (Male ICR mice [2]; morphine control, 5 mg/kg i.p. on days 3, 5, 7, 9): significant psychological dependence
